The values below come from publication PMC2185538, “Purification of the full-length Xenopus interphotoreceptor retinoid binding protein and growth of diffraction-quality crystals” (Molecular Vision, 2007).

In this experiment the target is T1, Xenopus interphotoreceptor retinoid-binding protein (xIRBP) (Xenopus laevis, UniProt Q7SZI7).
T1 construct: gene rbp3; recombinant full-length four-module xIRBP (1197 amino acids; 131 kDa), free of its thioredoxin fusion partner; vector-derived N-terminal G-L-G-D-P
T1 sequence (Q7SZI7 23-1219): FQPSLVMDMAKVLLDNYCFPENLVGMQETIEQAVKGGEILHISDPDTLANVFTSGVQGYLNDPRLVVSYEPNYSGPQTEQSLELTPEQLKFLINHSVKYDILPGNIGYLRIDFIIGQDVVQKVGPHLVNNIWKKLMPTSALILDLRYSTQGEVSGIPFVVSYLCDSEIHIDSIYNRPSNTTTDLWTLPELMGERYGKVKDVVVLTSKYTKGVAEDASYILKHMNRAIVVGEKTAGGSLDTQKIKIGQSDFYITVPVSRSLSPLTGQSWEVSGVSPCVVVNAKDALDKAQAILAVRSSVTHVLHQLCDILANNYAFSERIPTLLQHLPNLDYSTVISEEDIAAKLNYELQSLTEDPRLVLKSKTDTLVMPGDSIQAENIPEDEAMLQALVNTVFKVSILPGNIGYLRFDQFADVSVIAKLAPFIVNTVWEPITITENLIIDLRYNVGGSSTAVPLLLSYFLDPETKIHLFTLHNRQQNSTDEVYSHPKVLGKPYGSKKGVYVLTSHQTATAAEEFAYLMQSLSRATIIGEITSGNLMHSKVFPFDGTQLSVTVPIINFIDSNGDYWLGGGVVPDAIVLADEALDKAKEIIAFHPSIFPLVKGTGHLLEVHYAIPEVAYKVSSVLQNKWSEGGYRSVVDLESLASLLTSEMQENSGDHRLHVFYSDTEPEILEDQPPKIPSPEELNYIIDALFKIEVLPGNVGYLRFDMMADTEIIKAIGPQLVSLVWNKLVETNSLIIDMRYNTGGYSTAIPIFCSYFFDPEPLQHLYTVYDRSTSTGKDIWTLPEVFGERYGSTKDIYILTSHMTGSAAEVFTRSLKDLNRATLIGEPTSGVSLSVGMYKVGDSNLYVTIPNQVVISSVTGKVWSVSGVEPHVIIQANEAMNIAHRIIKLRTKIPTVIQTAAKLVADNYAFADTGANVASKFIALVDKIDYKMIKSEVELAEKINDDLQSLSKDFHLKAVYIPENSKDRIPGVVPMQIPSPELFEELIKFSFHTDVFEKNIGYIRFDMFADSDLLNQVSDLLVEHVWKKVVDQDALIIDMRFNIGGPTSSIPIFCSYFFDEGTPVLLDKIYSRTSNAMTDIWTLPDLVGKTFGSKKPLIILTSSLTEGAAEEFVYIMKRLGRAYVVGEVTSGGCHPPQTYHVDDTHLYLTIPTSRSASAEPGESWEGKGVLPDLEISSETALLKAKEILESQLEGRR
Nature of the experiment: fluorescence titration: retinol fluorescence enhancement (also tryptophan quenching, Kd […], and energy transfer, Kd […]).

SMILES strings stand for the structures.

Take `CC1=C(/C=C/C(C)=C/C=C/C(C)=C/CO)C(C)(C)CCC1` [all-trans retinol]: the Kd was found to be 0.15 ± 0.03 µM.
